Where two headings read alike, the source gives them in different places.
Target: Human Factor D (Homo sapiens (Human), UniProt P00746)
Test: Human Factor D Assay
Type: biochemical
Procedure, shortened: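 Serum-purified human Factor D (80 nM final) was preincubated with test compound at various concentrations for 5 min at room temperature in 50 mM Tris, 1M NaCl, pH 7.5. Z-L-Lys-SBzl and DTNB were then added at 100 μM each. IC50 came from nonlinear regression of reaction rates versus compound concentration.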

[1] = Human Factor D 80 nM, substrate Z-L-Lys-SBzl, read-out: IC50
[2] = Human Factor D assay of Example 8, Table 2, read-out: IC50

Sequence of Human Factor D (P00746 26-253): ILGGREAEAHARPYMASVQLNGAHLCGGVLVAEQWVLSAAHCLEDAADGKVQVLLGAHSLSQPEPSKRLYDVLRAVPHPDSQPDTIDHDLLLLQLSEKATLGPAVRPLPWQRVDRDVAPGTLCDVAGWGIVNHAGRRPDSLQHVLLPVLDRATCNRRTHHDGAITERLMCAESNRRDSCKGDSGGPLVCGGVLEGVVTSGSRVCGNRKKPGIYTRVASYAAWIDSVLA

Compound	IC50 [1]	IC50 [2]	further results
CC(=O)c1cn(CC(=O)N2C[C@H](F)C[C@H]2C(=O)Nc2ccccc2-c2nncn2C)c2ccc(-c3ccnnc3)cc12 [Compound 181, (2S,4R)-1-(2-(3-acetyl-5-(pyridazin-4-yl)-1H-indol-1-yl)acetyl)-4-fluoro-N-(2-(4-methyl-4H-1,2,4-triazol-3-yl)phenyl) pyrrolidine-2-carboxamide]	> 10 µM	–	–
CC(=O)c1cn(CC(=O)N2C[C@H](F)C[C@H]2C(=O)Nc2noc(-c3ccccc3Cl)n2)c2ccc(-c3ccnnc3)cc12 [Compound 182, (2S,4R)-1-(2-(3-acetyl-5-(pyridazin-4-yl)-1H-indol-1-yl)acetyl)-N-(5-(2-chlorophenyl)-1,2,4-oxadiazol-3-yl)-4-fluoropyrrolidine-2-carboxamide]	< 1 µM	–	–
NC(=O)c1nn(CC(=O)N2C[C@H](F)C[C@H]2C(=O)Nc2cccnc2Cl)c2ccc(-c3ccnnc3)cc12 [Compound 185, 1-(2-((2S,4R)-2-(2-chloropyridin-3-ylcarbamoyl)-4-fluoropyrrolidin-1-yl)-2-oxoethyl)-5-(pyridazin-4-yl)-1H-indazole-3-carboxamide]	–	–	IC50: 1 to 10 µM
CC(=O)c1cn(CC(=O)N2C[C@H](F)C[C@H]2C(=O)Nc2cccc(-c3ccccc3Cl)c2F)c2ccc(-c3cnc(O)nc3)cc12 [Compound 186, (2S,4R)-1-(2-(3-acetyl-5-(2-hydroxypyrimidin-5-yl)-1H-indol-1-yl)acetyl)-N-(2′-chloro-2-fluorobiphenyl-3-yl)-4-fluoropyrrolidine-2-carboxamide]	< 1 µM	–	–
COCCNc1ncc(-c2ccc3c(c2)c(C(C)=O)cn3CC(=O)N2C[C@H](F)C[C@H]2C(=O)Nc2cccc(-c3ccccc3Cl)c2F)cn1 [Compound 187, (2S,4R)-1-(2-(3-acetyl-5-(2-(2-methoxyethylamino)pyrimidin-5-yl)-1H-indol-1-yl)acetyl)-N-(2′-chloro-2-fluorobiphenyl-3-yl)-4-fluoropyrrolidine-2-carboxamide]	< 1 µM	–	–
CNc1ncc(-c2ccc3c(c2)c(C(C)=O)cn3CC(=O)N2C[C@H](F)C[C@H]2C(=O)Nc2cccc(-c3ccccc3Cl)c2F)cn1 [Compound 188, (2S,4R)-1-(2-(3-acetyl-5-(2-(methylamino)pyrimidin-5-yl)-1H-indol-1-yl)acetyl)-N-(2′-chloro-2-fluorobiphenyl-3-yl)-4-fluoropyrrolidine-2-carboxamide]	< 1 µM	–	–
CC(=O)c1nn(CC(=O)N2[C@@H]3C[C@@H]3C[C@H]2C(=O)Nc2cccc(-c3ccccc3Cl)c2F)c2ccc(-c3cnc(C)nc3)cc12 [Compound 189, (1R,3S,5R)-2-(2-(3-acetyl-5-(2-methylpyrimidin-5-yl)-1H-indazol-1-yl)acetyl)-N-(2′-chloro-2-fluorobiphenyl-3-yl)-2-azabicyclo[3.1.0] hexane-3-carboxamide]	< 1 µM	–	–
CC(=O)c1nn(CC(=O)N2[C@@H]3C[C@@H]3C[C@H]2C(=O)Nc2cccc(Br)n2)c2ccc(-c3cnc(C)nc3)cc12 [Compound 190, (1R,3S,5R)-2-(2-(3-acetyl-5-(2-methylpyrimidin-5-yl)-1H-indazol-1-yl)acetyl)-N-(6-bromopyridin-2-yl)-2-azabicyclo[3.1.0] hexane-3-carboxamide]	< 1 µM	–	–
CC(=O)c1cn(CC(=O)N2C[C@H](F)C[C@H]2C(=O)Nc2cccc(-c3ccccc3Cl)c2F)c2ccc(-c3cnc(C(F)(F)F)nc3)cc12 [Compound 191, (2S,4R)-1-(2-(3-acetyl-5-(2-(trifluoromethyl)pyrimidin-5-yl)-1H-indol-1-yl)acetyl)-N-(2′-chloro-2-fluorobiphenyl-3-yl)-4-fluoropyrrolidine-2-carboxamide]	< 1 µM	–	–
CC(=O)c1ccc(Cl)c(-c2cccc(NC(=O)[C@@H]3C[C@@H](F)CN3C(=O)Cn3nc(C(C)=O)c4cc(-c5cnc(C)nc5)ccc43)c2F)c1 [Compound 192, (2S,4R)-N-(5′-acetyl-2′-chloro-2-fluorobiphenyl-3-yl)-1-(2-(3-acetyl-5-(2-methylpyrimidin-5-yl)-1H-indazol-1-yl)acetyl)-4-fluoropyrrolidine-2-carboxamide]	–	< 1 µM	–
CC(=O)c1cn(CC(=O)N2C[C@H](F)C[C@H]2C(=O)Nc2cccc(-c3ccccc3Cl)c2F)c2ccc(-c3cnc(NCC(F)(F)F)nc3)cc12 [Compound 193, (2S,4R)-1-(2-(3-acetyl-5-(2-(2,2,2-trifluoroethylamino)pyrimidin-5-yl)-1H-indol-1-yl)acetyl)-N-(2′-chloro-2-fluorobiphenyl-3-yl)-4-fluoropyrrolidine-2-carboxamide]	–	< 1 µM	–
CCOc1ncc(-c2ccc3c(c2)c(C(C)=O)cn3CC(=O)N2C[C@H](F)C[C@H]2C(=O)Nc2cccc(-c3ccccc3Cl)c2F)cn1 [Compound 194, (2S,4R)-1-(2-(3-acetyl-5-(2-ethoxypyrimidin-5-yl)-1H-indol-1-yl)acetyl)-N-(2′-chloro-2-fluorobiphenyl-3-yl)-4-fluoropyrrolidine-2-carboxamide]	–	< 1 µM	–
NC(=O)c1nn(CC(=O)N2C[C@H](F)C[C@H]2C(=O)Nc2cccnc2O)c2ccc(-c3ccnnc3)cc12 [Compound 196, 1-(2-((2S,4R)-4-fluoro-2-(2-hydroxypyridin-3-ylcarbamoyl)pyrrolidin-1-yl)-2-oxoethyl)-5-(pyridazin-4-yl)-1H-indazole-3-carboxamide]	–	> 10 µM	–
CC(=O)c1cn(CC(=O)N2C[C@H](F)C[C@H]2C(=O)Nc2cccnc2O)c2ccc(-c3ccnnc3)cc12 [Compound 197]	–	> 10 µM	–
CC(=O)c1nn(CC(=O)N2C[C@H](F)C[C@H]2C(=O)Nc2cccc(-c3cc(C(N)=O)ccc3Cl)c2F)c2ccc(-c3cnc(C)nc3)cc12 [Compound 198, (2S,4R)-1-(2-(3-acetyl-5-(2-methylpyrimidin-5-yl)-1H-indazol-1-yl)acetyl)-N-(5′-carbamoyl-2′-chloro-2-fluorobiphenyl-3-yl)-4-fluoropyrrolidine-2-carboxamide]	–	< 1 µM	–
Cc1ncc(-c2ccc3c(c2)c(C(N)=O)nn3CC(=O)N2[C@@H]3C[C@@H]3C[C@H]2C(=O)Nc2cccc(Br)n2)cn1 [Compound 202, 1-(2-((1R,3S,5R)-3-(6-bromopyridin-2-ylcarbamoyl)-2-azabicyclo[3.1.0]hexan-2-yl)-2-oxoethyl)-5-(2-methylpyrimidin-5-yl)-1H-indazole-3-carboxamide]	–	< 1 µM	–
COc1ncc(-c2ccc3c(c2)c(C(C)=O)cn3CC(=O)N2C[C@H](Cl)C[C@H]2C(=O)Nc2cccc(-c3ccccc3Cl)c2F)cn1 [Compound 203]	–	< 1 µM	–
COC(=O)c1ncc(-c2ccc3c(c2)c(C(C)=O)cn3CC(=O)N2C[C@H](F)C[C@H]2C(=O)Nc2cccc(-c3ccccc3Cl)c2F)cn1 [Compound 204, methyl 5-(3-acetyl-1-(2-((2S,4R)-2-(2′-chloro-2-fluorobiphenyl-3-ylcarbamoyl)-4-fluoropyrrolidin-1-yl)-2-oxoethyl)-1H-indol-5-yl)pyrimidine-2-carboxylate]	–	< 1 µM	–
CC(=O)c1cn(CC(=O)N2C[C@H](F)C[C@H]2C(=O)Nc2cccc(-c3ccccc3Cl)c2F)c2ccc(-c3cnc(C(=O)O)nc3)cc12 [Compound 205, 5-(3-acetyl-1-(2-((2S,4R)-2-(2′-chloro-2-fluorobiphenyl-3-ylcarbamoyl)-4-fluoropyrrolidin-1-yl)-2-oxoethyl)-1H-indol-5-yl)pyrimidine-2-carboxylic acid]	–	< 1 µM	–
CC(=O)c1cn(CC(=O)N2C[C@H](F)C[C@H]2C(=O)Nc2cccc(-c3ccncc3Cl)c2F)c2ccc(-c3cnc(C)nc3)cc12 [Compound 206, (2S,4R)-1-(2-(3-acetyl-5-(2-methylpyrimidin-5-yl)-1H-indol-1-yl)acetyl)-N-(3-(3-chloropyridin-4-yl)-2-fluorophenyl)-4-fluoropyrrolidine-2-carboxamide]	–	< 1 µM	–
CC(=O)c1cn(CC(=O)N2C[C@H](F)C[C@H]2C(=O)Nc2cccc(-c3ccccc3Cl)c2F)c2ccc(-c3cnc(C)c(Cl)c3)cc12 [Compound 207, (2S,4R)-1-(2-(3-acetyl-5-(5-chloro-6-methylpyridin-3-yl)-1H-indol-1-yl)acetyl)-N-(2′-chloro-2-fluorobiphenyl-3-yl)-4-fluoropyrrolidine-2-carboxamide]	–	< 1 µM	–
NC(=O)c1nn(CC(=O)N2C[C@H](F)C[C@H]2C(=O)Nc2cccc(-c3ccccc3Cl)c2F)cc1-c1ccsc1 [Compound 208, 1-(2-((2S,4R)-2-(2′-chloro-2-fluorobiphenyl-3-ylcarbamoyl)-4-fluoropyrrolidin-1-yl)-2-oxoethyl)-4-(thiophen-3-yl)-1H-pyrazole-3-carboxamide]	–	1 to 10 µM	–
CC(=O)c1cn(CC(=O)N2C[C@H](F)C[C@H]2C(=O)Nc2cccc(-c3ccccc3Cl)c2F)c2ccc(-c3cnc(C(N)=O)nc3)cc12 [Compound 209, 5-(3-acetyl-1-(2-((2S,4R)-2-(2′-chloro-2-fluorobiphenyl-3-ylcarbamoyl)-4-fluoropyrrolidin-1-yl)-2-oxoethyl)-1H-indol-5-yl)pyrimidine-2-carboxamide]	–	< 1 µM	–
CC(=O)c1cn(CC(=O)N2C[C@H](F)C[C@H]2C(=O)Nc2cccc(-c3ccccc3Cl)c2F)c2ccc(-c3cnc(S(C)(=O)=O)nc3)cc12 [Compound 210, (2S,4R)-1-(2-(3-acetyl-5-(2-(methylsulfonyl)pyrimidin-5-yl)-1H-indol-1-yl)acetyl)-N-(2′-chloro-2-fluorobiphenyl-3-yl)-4-fluoropyrrolidine-2-carboxamide]	–	< 1 µM	–
CC(=O)c1cn(CC(=O)N2C[C@H](F)C[C@H]2C(=O)Nc2cccc(-c3ccccc3Cl)c2F)c2ccc(-c3cnc(C(=O)NC4CC4)nc3)cc12 [Compound 211, 5-(3-acetyl-1-(2-((2S,4R)-2-(2′-chloro-2-fluorobiphenyl-3-ylcarbamoyl)-4-fluoropyrrolidin-1-yl)-2-oxoethyl)-1H-indol-5-yl)-N-cyclopropylpyrimidine-2-carboxamide]	–	< 1 µM	–

Source: patent US10287301B2 (Achillion Pharmaceuticals, Inc., priority 2015, dated 2019)
